Experimental data taken from patent US9765075B2, “Substituted bridged urea analogs as sirtuin modulators” (GLAXOSMITHKLINE LLC, priority 2013, dated 2017).
Where a chain is given by its changes, count along the chain named. pEC50: −log10 of the molar value.

Tests used:
Experiment in all cases: SIRT1 activation dose-response, OAcADPr assay with Ac-p53(W5) substrate
Assay type in all cases: biochemical
full-length hSIRT1 WT = target: T1, full-length hSIRT1 WT (Homo sapiens, UniProt Q96EB6); details: for pEC50: hSIRT1 WT, activation dose-response, Ac-p53(W5) substrate
T1 construct: Full-length human SIRT1 (hSIRT1) proteins were expressed with a C-terminal His6 tag; His6 (C); made in house
T1 sequence (Q96EB6 1-747): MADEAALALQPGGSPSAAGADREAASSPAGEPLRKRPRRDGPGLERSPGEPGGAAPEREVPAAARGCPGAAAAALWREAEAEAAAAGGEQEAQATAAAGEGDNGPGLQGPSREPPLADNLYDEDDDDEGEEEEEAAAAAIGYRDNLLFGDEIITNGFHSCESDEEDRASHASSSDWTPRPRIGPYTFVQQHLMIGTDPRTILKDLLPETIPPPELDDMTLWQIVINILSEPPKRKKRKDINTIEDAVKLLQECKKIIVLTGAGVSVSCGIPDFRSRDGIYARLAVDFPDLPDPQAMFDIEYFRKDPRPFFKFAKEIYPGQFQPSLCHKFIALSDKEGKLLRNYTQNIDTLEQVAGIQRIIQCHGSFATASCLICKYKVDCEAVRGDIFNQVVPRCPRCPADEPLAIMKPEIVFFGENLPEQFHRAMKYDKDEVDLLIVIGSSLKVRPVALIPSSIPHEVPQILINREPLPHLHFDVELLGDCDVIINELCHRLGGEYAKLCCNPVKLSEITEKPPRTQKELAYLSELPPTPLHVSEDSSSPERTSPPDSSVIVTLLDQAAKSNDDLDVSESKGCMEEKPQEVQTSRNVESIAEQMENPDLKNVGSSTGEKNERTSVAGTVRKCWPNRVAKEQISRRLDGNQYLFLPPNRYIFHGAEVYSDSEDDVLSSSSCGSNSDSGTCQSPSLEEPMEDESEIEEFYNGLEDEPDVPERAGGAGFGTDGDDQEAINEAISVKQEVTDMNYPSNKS

full-length hSIRT1 T219A = target: T2, full-length hSIRT1 T219A (Homo sapiens, UniProt Q96EB6, T219A); details: for pEC50: hSIRT1 T219A, activation dose-response, Ac-p53(W5) substrate
T2 construct: The following point mutants of full-length hSIRT1 were generated; His6 (C); made in house
T2 sequence (Q96EB6 1-747 T219A): T1 sequence (Q96EB6 1-747) with T219A

full-length hSIRT1 E230A = target: T3, full-length hSIRT1 E230A (Homo sapiens, UniProt Q96EB6, E230A); details: for pEC50: hSIRT1 E230A, activation dose-response, Ac-p53(W5) substrate
T3 construct: His6 (C); made in house
T3 sequence (Q96EB6 1-747 E230A): T1 sequence (Q96EB6 1-747) with E230A

`Cc1cnc2c(NC(=O)N3c4nc(-c5cccc(C(F)(F)F)c5)ccc4N4CC[C@H]3C4)cccc2n1` [Example 8] was tested, and the “EC50 fold shift (mutant EC50/wild-type EC50)” value (full-length hSIRT1 WT) was 1.00, the “RVmax fold shift = (wild-type RVmax−1)/(mutant RVmax−1)” value (“RVmax fold shift =” for short) (full-length hSIRT1 WT) was 1.00 and the pEC50 (full-length hSIRT1 WT) was 6.32. For the same compound, the “EC50 fold shift (mutant EC50/wild-type EC50)” value (full-length hSIRT1 T219A) was 8.26, the “RVmax fold shift =” value (full-length hSIRT1 T219A) was 1.64 and the pEC50 (full-length hSIRT1 T219A) was 5.40. The “EC50 fold shift (mutant EC50/wild-type EC50)” value (full-length hSIRT1 E230A) was 1.11, the “RVmax fold shift =” value (full-length hSIRT1 E230A) was 2.39 and the pEC50 (full-length hSIRT1 E230A) was 6.28.

For `O=C(Nc1ccccn1)N1c2nc(-c3cccc(C(F)(F)F)c3)ccc2N2CC[C@H]1C2` [Example 7], the “EC50 fold shift (mutant EC50/wild-type EC50)” value (full-length hSIRT1 WT) was 1.00, the “RVmax fold shift =” value (full-length hSIRT1 WT) was 1.00 and the pEC50 (full-length hSIRT1 WT) was 5.66. The “EC50 fold shift (mutant EC50/wild-type EC50)” value (full-length hSIRT1 T219A) was 4.01, the “RVmax fold shift =” value (full-length hSIRT1 T219A) was 2.73 and the pEC50 (full-length hSIRT1 T219A) was 5.05. The “EC50 fold shift (mutant EC50/wild-type EC50)” value (full-length hSIRT1 E230A) was 1.19, the “RVmax fold shift =” value (full-length hSIRT1 E230A) was 3.58 and the pEC50 (full-length hSIRT1 E230A) was 5.58.
